Test results taken from patent publication US20190343908A1, “Therapeutic Combination for the Treatment of Cancer” (Nerium Biotechnology Inc., priority 2011, published 2019).

Experiments:
[1] = system: CALU-1 (non-small cell lung carcinoma); assay: Sulforhodamine B viability assay, CALU-1; format: cell-based, human
From the text: (§1) Three different viability assays were chosen to complement each other and yielded results dependent on concentration and cell line: the Methyl Tetrazolium dye assay, the Sulforhodamine B fluorescent dye assay, and the Crystal Violet dye assay.
The Sulforhodamine B and Crystal Violet assays provide information about protein and were used to complement the Methyl-Tetrazolium dye assay. […] It is used for the quantification of cellular proteins of cultured cells. The assay using Crystal Violet, a dye that binds electrostatically to proteins and stains DNA, provides a reliable, simple assay for measuring viability of cells.
(§2) The Methyl Tetrazolium, Sulforhodamine B, and Crystal Violet assays were used to assess cell viabilities. The incubation times were 24 hours, 48 hours, and 72 hours. The Nerium oleander extract Anvirzel™ (a hot water extract of oleander obtained from Salud Integral, Honduras) was tested in concentrations ranging from 0.01 ng/mL to 10 ng/mL.
(§3) Cells were detached by trypsinization (Trypsin-0.25% EDTA, Invitrogen, 25200-072) during the logarithmic phase of culture growth and plated in 96-well plates (18.000 cells/well) (Corning, Costar 359) in a final volume of 200 μl of medium per well. […] The absorbance was measured after 24 hours, 48 hours, and 72 hours of incubation.
For the Sulforhodamine B assay, 96-well plates were fixed by 10% trichloroacetic acid (Fluka, 91228) and were incubated at 4° C. for 1 hour. Afterwards, plates were rinsed with water and cells were stained with 0.4% Sulforhodamine B (Sigma, 341738), dissolved in 1% acetic acid (Carlo Ebra, 401422) for 15 minutes at room temperature (RT). The unbound stain was washed twice with 1% acetic acid. Finally, 10 mM Tris Buffer pH 10.5 (Sigma, T6791) was added to dissolve the dye.
(§4) The optical density of each plate was measured on a μQuant spectrophotometer and the data were analyzed with Gen5 software (μQuant Biomolecular Spectrophotometer MQX200 and Gen5™ Microplate Data Collection & Analysis software, BioTek® Instruments. Inc, April 2008). Absorbance was measured at 570 nm for all assays and a second wavelength was measured in order to subtract noise. For the Methyl-Tetrazolium assay this second wavelength was 630 nm and for the Sulforhodamine B and Crystal Violet assays it was 690 nm.

[2] = system: T47D (human breast cancer); assay: Methyl-Tetrazolium viability assay, T47D; format: cell-based; set-up: key: absorbance (optical density) at 570 nm, second wavelength subtracted
From the text: as §1
The Methyl-Tetrazolium dye assay measures the activity of enzymes in mitochondria. The dye precursor is taken up by cells, where it undergoes reduction to the purple formazan. It measures only the mitochondrial activity and, thus, it is not always a reliable indication of whether the cells themselves are alive or dead, since even a recently dead cell has […] enzyme activity in mitochondria. Intracellular glucose concentration, pH, and time before assay all affect the measurements.
as §2, §3
For the Methyl-Tetrazolium assay, the dye (Sigma, M2128; 5 mg/mL, diluted in phosphate-buffered saline) was added to each well and plates were incubated for 3 hours at 37° C. After the end of the incubation period, the medium was discarded and the cells were rinsed with phosphate-buffered saline. Finally, the formazan crystals were dissolved in dimethylsulphoxide (Sigma, D4540).
as §4

N.N.[Cl][Pt][Cl] [cisplatin]
Average SRB 24 h ([1]; CALU-1 Run 1, 0.1 μg/ml CDDP): 1.457
Average SRB 48 h ([1]; CALU-1 Run 1, 0.1 μg/ml CDDP): 1.939
Average SRB 72 h ([1]; CALU-1 Run 1, 0.1 μg/ml CDDP): 1.598
Average SRB 24 h ([1]; CALU-1 Run 1, 1 μg/ml CDDP): 1.438
Average SRB 48 h ([1]; CALU-1 Run 1, 1 μg/ml CDDP): 1.991
Average SRB 72 h ([1]; CALU-1 Run 1, 1 μg/ml CDDP): 1.5
Average SRB 24 h ([1]; CALU-1 Run 1, 10 μg/ml CDDP): 1.401
Average SRB 48 h ([1]; CALU-1 Run 1, 10 μg/ml CDDP): 1.563
Average SRB 72 h ([1]; CALU-1 Run 1, 10 μg/ml CDDP): 1.108
Average SRB 24 h ([1]; CALU-1 Run 1, 100 μg/ml CDDP): 1.348
Average SRB 48 h ([1]; CALU-1 Run 1, 100 μg/ml CDDP): 1.521
Average SRB 72 h ([1]; CALU-1 Run 1, 100 μg/ml CDDP): 1.299
Average SRB 24 h ([1]; CALU-1 Run 2, 0.1 μg/ml CDDP): 1.437
Average SRB 48 h ([1]; CALU-1 Run 2, 0.1 μg/ml CDDP): 1.79
Average SRB 72 h ([1]; CALU-1 Run 2, 0.1 μg/ml CDDP): 2.674
Average SRB 24 h ([1]; CALU-1 Run 2, 1 μg/ml CDDP): 1.725
Average SRB 48 h ([1]; CALU-1 Run 2, 1 μg/ml CDDP): 1.837
Average SRB 72 h ([1]; CALU-1 Run 2, 1 μg/ml CDDP): 2.563
Average SRB 24 h ([1]; CALU-1 Run 2, 10 μg/ml CDDP): 1.48
Average SRB 48 h ([1]; CALU-1 Run 2, 10 μg/ml CDDP): 1.702
Average SRB 72 h ([1]; CALU-1 Run 2, 10 μg/ml CDDP): 2.434
Average SRB 24 h ([1]; CALU-1 Run 2, 100 μg/ml CDDP): 1.318
Average SRB 48 h ([1]; CALU-1 Run 2, 100 μg/ml CDDP): 1.541
Average SRB 72 h ([1]; CALU-1 Run 2, 100 μg/ml CDDP): 1.575
Average SRB 24 h ([1]; CALU-1 Run 3, 0.1 μg/ml CDDP, 24 h): 1.492
Average SRB 48 h ([1]; CALU-1 Run 3, 0.1 μg/ml CDDP, 48 h): 1.491
Average SRB 72 h ([1]; CALU-1 Run 3, 0.1 μg/ml CDDP, 72 h): 1.835
Average SRB 24 h ([1]; CALU-1 Run 3, 1 μg/ml CDDP, 24 h): 1.295
Average SRB 48 h ([1]; CALU-1 Run 3, 1 μg/ml CDDP, 48 h): 1.463
Average SRB 72 h ([1]; CALU-1 Run 3, 1 μg/ml CDDP, 72 h): 1.452
Average SRB 24 h ([1]; CALU-1 Run 3, 10 μg/ml CDDP, 24 h): 1.139
Average SRB 48 h ([1]; CALU-1 Run 3, 10 μg/ml CDDP, 48 h): 1.152
Average SRB 72 h ([1]; CALU-1 Run 3, 10 μg/ml CDDP, 72 h): 1.193
Average SRB 24 h ([1]; CALU-1 Run 3, 100 μg/ml CDDP, 24 h): 0.98
Average SRB 48 h ([1]; CALU-1 Run 3, 100 μg/ml CDDP, 48 h): 1.449
Average SRB 72 h ([1]; CALU-1 Run 3, 100 μg/ml CDDP, 72 h): 1.264
MTT Average ([2]; T47D Run 1, 24 h, 0.1 μg/ml CDDP): 0.166
MTT Average ([2]; T47D Run 1, 24 h, 1 μg/ml CDDP): 0.033
MTT Average ([2]; T47D Run 1, 24 h, 10 μg/ml CDDP): 0.046
MTT Average ([2]; T47D Run 1, 24 h, 100 μg/ml CDDP): 0.045
MTT Average ([2]; T47D Run 1, 48 h, 1 μg/ml CDDP): 0.039
MTT Average ([2]; T47D Run 1, 48 h, 10 μg/ml CDDP): 0.044
MTT Average ([2]; T47D Run 1, 48 h, 100 μg/ml CDDP): 0.038
MTT Average ([2]; T47D Run 1, 72 h, 0.1 μg/ml CDDP): 0.336
MTT Average ([2]; T47D Run 1, 72 h, 1 μg/ml CDDP): 0.04
MTT Average ([2]; T47D Run 1, 72 h, 10 μg/ml CDDP): 0.05
MTT Average ([2]; T47D Run 1, 72 h, 100 μg/ml CDDP): 0.049
MTT Average ([2]; T47D Run 2, 24 h, 0.1 μg/ml CDDP): 0.181
MTT Average ([2]; T47D Run 2, 24 h, 1 μg/ml CDDP): 0.051
MTT Average ([2]; T47D Run 2, 24 h, 10 μg/ml CDDP): 0.07
MTT Average ([2]; T47D Run 2, 24 h, 100 μg/ml CDDP): 0.051
MTT Average ([2]; T47D Run 2, 48 h, 0.1 μg/ml CDDP): 0.262
MTT Average ([2]; T47D Run 2, 48 h, 1 μg/ml CDDP): 0.052
MTT Average ([2]; T47D Run 2, 48 h, 10 μg/ml CDDP): 0.066
MTT Average ([2]; T47D Run 2, 48 h, 100 μg/ml CDDP): 0.054
MTT Average ([2]; T47D Run 2, 72 h, 0.1 μg/ml CDDP): 0.397
MTT Average ([2]; T47D Run 2, 72 h, 1 μg/ml CDDP): 0.046
MTT Average ([2]; T47D Run 2, 72 h, 10 μg/ml CDDP): 0.041
MTT Average ([2]; T47D Run 2, 72 h, 100 μg/ml CDDP): 0.037
MTT Average ([2]; T47D Run 3, 24 h, 1 μg/ml CDDP): 0.033
MTT Average ([2]; T47D Run 3, 24 h, 10 μg/ml CDDP): 0.074
MTT Average ([2]; T47D Run 3, 24 h, 100 μg/ml CDDP): 0.047
MTT Average ([2]; T47D Run 3, 48 h, 0.1 μg/ml CDDP): 0.261
MTT Average ([2]; T47D Run 3, 48 h, 1 μg/ml CDDP): 0.047
MTT Average ([2]; T47D Run 3, 48 h, 10 μg/ml CDDP): 0.077
MTT Average ([2]; T47D Run 3, 48 h, 100 μg/ml CDDP): 0.051
MTT Average ([2]; T47D Run 3, 72 h, 0.1 μg/ml CDDP): 0.371
MTT Average ([2]; T47D Run 3, 72 h, 1 μg/ml CDDP): 0.035
MTT Average ([2]; T47D Run 3, 72 h, 10 μg/ml CDDP): 0.057
MTT Average ([2]; T47D Run 3, 72 h, 100 μg/ml CDDP): 0.035
